According to patent publication US6737383B1, “Herbicidal oxadiazolidines” (priority 1999, dated 2004):

Key:
[1] = tested on: wheat; test: Test B pre/postemergence wheat; type: in vivo, Triticum aestivum; conditions: for Plant response rating, Wheat: scale of 0 to 10 where 0 is no effect and 10 is complete control
How it was run: (§1)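 Herbicidal effect was estimated by eye on a ten-point control scale after plants spent twelve to sixteen days in a greenhouse following soil or foliar treatment. Foliar sprays targeted plants at one to four leaves; all doses were formulated in a non-phytotoxic solvent with surfactant.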

[2] = tested on: bamyardgrass; test: Test B flood test barnyardgrass; type: in vivo, Echinochloa crus-galli
How it was run: (§2)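 Read-out is a visual response score from 0 (no effect) to 10 (complete control), assigned by comparison with untreated controls. Treatment was applied at the 2-leaf stage, and plants stayed in the greenhouse for twelve to sixteen days before scoring.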

[3] = tested on: velvetleaf; test: Test B pre/postemergence velvetleaf; type: in vivo, Abutilon theophrasti; conditions: for Plant response rating, Velvetleaf: scale of 0 to 10 where 0 is no effect and 10 is complete control
How it was run: as §1

[4] = tested on: crabgrass; test: Test B pre/postemergence crabgrass; type: in vivo, Digitaria sanguinalis
How it was run: as §1

[5] = tested on: corn; test: Test B pre/postemergence corn; type: in vivo, Zea mays
How it was run: as §1

[6] = tested on: duck salad; test: Test B flood test duck salad; type: in vivo, Heteranthera limosa
How it was run: as §2

[7] = tested on: rape; test: Test B pre/postemergence rape; type: in vivo, Brassica napus; conditions: for Plant response rating, Rape: scale of 0 to 10 where 0 is no effect and 10 is complete control
How it was run: as §1

[8] = tested on: surinam grass; test: Test B pre/postemergence surinam grass; type: in vivo, Brachiaria decumbens
How it was run: as §1

[9] = tested on: soybean; test: Test B pre/postemergence soybean; type: in vivo, Glycine max; conditions: for Plant response rating, Soybean: scale of 0 to 10 where 0 is no effect and 10 is complete control
How it was run: as §1

[10] = tested on: sugar beet; test: Test B pre/postemergence sugar beet; type: in vivo, Beta vulgaris; conditions: for Plant response rating, Sugarbeets: scale of 0 to 10 where 0 is no effect and 10 is complete control
How it was run: as §1

[11] = tested on: cocklebur; test: Test B pre/postemergence cocklebur; type: in vivo, Xanthium strumarium
How it was run: as §1

[12] = tested on: rice; test: Test B flood test rice; type: in vivo, Oryza sativa
How it was run: as §2

[13] = tested on: smallflower flatsedge; test: Test B flood test smallflower flatsedge; type: in vivo, Cyperus difformis
How it was run: as §2

[14] = tested on: wild oat; test: Test B pre/postemergence wild oat; type: in vivo, Avena fatua; conditions: for Plant response rating, Wild oats: scale of 0 to 10 where 0 is no effect and 10 is complete control
How it was run: as §1

[15] = tested on: giant foxtail; test: Test B pre/postemergence giant foxtail; type: in vivo, Setaria faberii
How it was run: as §1

[16] = tested on: morningglory; test: Test B pre/postemergence morningglory; type: in vivo, Ipomoea hederacea; conditions: for Plant response rating, Morningglory: scale of 0 to 10 where 0 is no effect and 10 is complete control
How it was run: as §1

[17] = tested on: pigweed; test: Test B pre/postemergence pigweed; type: in vivo, Amaranthus retroflexus; conditions: for Plant response rating, Redroot pigweed: scale of 0 to 10 where 0 is no effect and 10 is complete control
How it was run: as §1

[18] = tested on: purple nutsedge; test: Test B pre/postemergence purple nutsedge; type: in vivo, Cyperus rotundus; conditions: for Plant response rating, Nutsedge: scale of 0 to 10 where 0 is no effect and 10 is complete control
How it was run: as §1

[19] = tested on: blackgrass; test: Test B pre/postemergence blackgrass; type: in vivo, Alopecurus myosuroides
How it was run: as §1

[20] = Postemergence, Rate 250 g/ha, scale 0 to 10
[21] = Preemergence, Rate 250 g/ha, scale 0 to 10, 0 is no effect, 10 is complete control
[22] = Preemergence, Rate 500 g/ha, scale 0 to 10, 0 is no effect, 10 is complete control
[23] = Rate 62 g/ha, Postemergence, scale 0 to 10 (0 no effect, 10 complete control)
[24] = Rate 125 g/ha, Postemergence, scale 0 to 10, 0 is no effect, 10 is complete control
[25] = Rate 62 g/ha, flood test species, Pre-emergence, visual evaluation after twelve to sixteen days
[26] = Rate 125 g/ha, under heading Pre-emergence, flood test species, visual evaluation after twelve to sixteen days
[27] = Rate 250 g/ha, Pre-emergence (flood test species), scale 0 to 10, 0 is no effect, 10 is complete control
[28] = Rate 500 g/ha, Pre-emergence, flood test species, scale 0 to 10 (0 no effect, 10 complete control)
[29] = Postemergence, Rate 500 g/ha, scale of 0 to 10 where 0 is no effect and 10 is complete control
[30] = Preemergence, Rate 62 g/ha, scale of 0 to 10 where 0 is no effect and 10 is complete control
[31] = Preemergence, Rate 125 g/ha, scale of 0 to 10 where 0 is no effect and 10 is complete control

## COC(CCl)n1c(=O)on(C(=O)N(c2ccc(Cl)cc2)C(C)C)c1=O (stereo not shown) [Compound 458]
[1]; [20]
  Wheat plant response rating: 2
[1]; Preemergence, Rate 62 g/ha
  Plant response rating, Wheat: 0
[1]; Preemergence, Rate 125 g/ha
  Plant response rating, Wheat: 0
[1]; [21]
  Wheat plant response rating: 0
[1]; [22]
  Wheat plant response rating: 2
[1]; [23]
  Wheat plant response rating: 0
[1]; [24]
  Wheat plant response rating: 0
[2]; [25]
  Plant response rating, Barnyardgrass (0 to 10 scale, 0 is no effect, 10 is complete control): 0
[2]; [26]
  Barnyardgrass plant response rating (0 to 10 scale, 0 is no effect, 10 is complete control): 0
[2]; [27]
  Barnyardgrass plant response rating: 0
[2]; [28]
  Barnyardgrass plant response rating: 0
[3]; [20]
  Velvetleaf plant response rating: 0
[3]; Preemergence, Rate 62 g/ha
  Plant response rating, Velvetleaf: 0
[3]; Preemergence, Rate 125 g/ha
  Plant response rating, Velvetleaf: 0
[3]; [21]
  Velvetleaf plant response rating: 2
[3]; [22]
  Velvetleaf plant response rating: 6
[3]; [23]
  Velvetleaf plant response rating: 0
[3]; [24]
  Velvetleaf plant response rating: 0
[4]; [20]
  Crabgrass plant response rating: 8
[4]; [29]
  Crabgrass plant response rating: 9
[4]; [30]
  Plant response rating, Crabgrass: 6
[4]; [31]
  Plant response rating, Crabgrass: 6
[4]; [21]
  Crabgrass plant response rating: 9
[4]; [22]
  Crabgrass plant response rating: 10
[4]; [23]
  Crabgrass plant response rating: 2
[4]; [24]
  Crabgrass plant response rating: 8
[5]; [20]
  Corn plant response rating: 2
[5]; [29]
  Corn plant response rating: 2
[5]; [30]
  Plant response rating, Corn: 0
[5]; [31]
  Plant response rating, Corn: 0
[5]; [21]
  Corn plant response rating: 0
[5]; [22]
  Corn plant response rating: 3
[5]; [23]
  Corn plant response rating: 0
[5]; [24]
  Corn plant response rating: 0
[6]; [25]
  Plant response rating, Ducksalad (0 to 10 scale, 0 is no effect, 10 is complete control): 0
[6]; [26]
  Ducksalad plant response rating (0 to 10 scale, 0 is no effect, 10 is complete control): 0
[6]; [27]
  Ducksalad plant response rating: 0
[6]; [28]
  Ducksalad plant response rating: 0
[7]; [20]
  Rape plant response rating: 0
[7]; Preemergence, Rate 62 g/ha
  Plant response rating, Rape: 0
[7]; Preemergence, Rate 125 g/ha
  Plant response rating, Rape: 0
[7]; [21]
  Rape plant response rating: 3
[7]; [22]
  Rape plant response rating: 4
[7]; [23]
  Rape plant response rating: 0
[7]; [24]
  Rape plant response rating: 0
[8]; Postemergence, Rate 250 g/ha, scale 0 to 10, 0 no effect, 10 complete control
  B. signalgrass plant response rating: 0
[8]; [29]
  B. signalgrass plant response rating: 3
[8]; [30]
  Plant response rating, B. signalgrass: 4
[8]; [31]
  Plant response rating, B. signalgrass: 4
[8]; [21]
  B. signalgrass plant response rating: 4
[8]; [22]
  B. signalgrass plant response rating: 4
[8]; [23]
  B. signalgrass plant response rating: 0
[8]; [24]
  B. signalgrass plant response rating: 0
[9]; [20]
  Soybean plant response rating: 2
[9]; Preemergence, Rate 62 g/ha
  Plant response rating, Soybean: 0
[9]; Preemergence, Rate 125 g/ha
  Plant response rating, Soybean: 0
[9]; [21]
  Soybean plant response rating: 0
[9]; [22]
  Soybean plant response rating: 2
[9]; [23]
  Soybean plant response rating: 0
[9]; [24]
  Soybean plant response rating: 1
[10]; [20]
  Sugarbeets plant response rating: 0
[10]; Preemergence, Rate 62 g/ha
  Plant response rating, Sugarbeets: 0
[10]; Preemergence, Rate 125 g/ha
  Plant response rating, Sugarbeets: 0
[10]; [21]
  Sugarbeets plant response rating: 2
[10]; [22]
  Sugarbeets plant response rating: 8
[10]; [23]
  Sugarbeets plant response rating: 0
[10]; [24]
  Sugarbeets plant response rating: 0
[11]; [20]
  Cocklebur plant response rating: 0
[11]; [29]
  Cocklebur plant response rating: 2
[11]; [30]
  Plant response rating, Cocklebur: 0
[11]; [31]
  Plant response rating, Cocklebur: 0
[11]; [21]
  Cocklebur plant response rating: 0
[11]; [22]
  Cocklebur plant response rating: 0
[11]; [23]
  Cocklebur plant response rating: 0
[11]; [24]
  Cocklebur plant response rating: 0
[12]; [25]
  Plant response rating, Rice (0 to 10 scale, 0 is no effect, 10 is complete control): 0
[12]; [26]
  Rice plant response rating (0 to 10 scale, 0 is no effect, 10 is complete control): 0
[12]; [27]
  Rice plant response rating: 0
[12]; [28]
  Rice plant response rating: 0
[13]; [25]
  Plant response rating, S. Flatsedge (0 to 10 scale, 0 is no effect, 10 is complete control): 0
[13]; [26]
  S. Flatsedge plant response rating (0 to 10 scale, 0 is no effect, 10 is complete control): 0
[13]; [27]
  S. Flatsedge plant response rating: 0
[13]; [28]
  S. Flatsedge plant response rating: 0
[14]; [20]
  Wild oats plant response rating: 2
[14]; Preemergence, Rate 62 g/ha
  Plant response rating, Wild oats: 0
[14]; Preemergence, Rate 125 g/ha
  Plant response rating, Wild oats: 2
[14]; [21]
  Wild oats plant response rating: 3
[14]; [22]
  Wild oats plant response rating: 10
[14]; [23]
  Wild oats plant response rating: 0
[14]; [24]
  Wild oats plant response rating: 0
[15]; [20]
  Giant foxtail plant response rating: 9
[15]; [29]
  Giant foxtail plant response rating: 9
[15]; [30]
  Plant response rating, Giant foxtail: 9
[15]; [31]
  Plant response rating, Giant foxtail: 9
[15]; [21]
  Giant foxtail plant response rating: 10
[15]; [22]
  Giant foxtail plant response rating: 10
[15]; [23]
  Giant foxtail plant response rating: 7
[15]; [24]
  Giant foxtail plant response rating: 9
[16]; [20]
  Morningglory plant response rating: 3
[16]; Preemergence, Rate 62 g/ha
  Plant response rating, Morningglory: 0
[16]; Preemergence, Rate 125 g/ha
  Plant response rating, Morningglory: 0
[16]; [21]
  Morningglory plant response rating: 0
[16]; [22]
  Morningglory plant response rating: 0
[16]; [23]
  Morningglory plant response rating: 0
[16]; [24]
  Morningglory plant response rating: 0
[17]; [20]
  Redroot pigweed plant response rating: 0
[17]; Preemergence, Rate 62 g/ha
  Plant response rating, Redroot pigweed: 0
[17]; Preemergence, Rate 125 g/ha
  Plant response rating, Redroot pigweed: 3
[17]; [21]
  Redroot pigweed plant response rating: 6
[17]; [22]
  Redroot pigweed plant response rating: 8
[17]; [23]
  Redroot pigweed plant response rating: 0
[17]; [24]
  Redroot pigweed plant response rating: 0
[18]; [20]
  Nutsedge plant response rating: 0
[18]; Preemergence, Rate 62 g/ha
  Plant response rating, Nutsedge: 0
[18]; Preemergence, Rate 125 g/ha
  Plant response rating, Nutsedge: 0
[18]; [21]
  Nutsedge plant response rating: 0
[18]; [22]
  Nutsedge plant response rating: 0
[18]; [23]
  Nutsedge plant response rating: 0
[18]; [24]
  Nutsedge plant response rating: 0
[19]; [20]
  Blackgrass plant response rating: 8
[19]; [29]
  Blackgrass plant response rating: 8
[19]; [30]
  Plant response rating, Blackgrass: 6
[19]; [31]
  Plant response rating, Blackgrass: 8
[19]; [21]
  Blackgrass plant response rating: 8
[19]; [22]
  Blackgrass plant response rating: 9
[19]; [23]
  Blackgrass plant response rating: 0
[19]; [24]
  Blackgrass plant response rating: 3
